Test results published in patent US9884842B2, “Combretastatin analogs” (The Board of Trustees of the University of Arkansas, priority 2013, dated 2018).

How the values were obtained:
NCI-H522 = test: NCI growth inhibition and cytotoxicity screen, Lung Cancer panel; type: cell-based; conditions: Homo sapiens, NCI-H522, Table 1, cell line NCIH522 (Lung Cancer)
SF-295 = test: NCI growth inhibition and cytotoxicity screen, CNS Cancer panel; type: cell-based; conditions: Homo sapiens, SF-295, Table 1, cell line SF-2395 (CNS Cancer)
HL-60(TB) = test: cells; conditions: Homo sapiens
OVCAR-3 = test: cells; conditions: Homo sapiens
CCRF-CEM = test: NCI growth inhibition and cytotoxicity screen, Leukemia panel; conditions: Homo sapiens
K-562 = test: as above; conditions: Homo sapiens, K562, read-out: LC50
RPMI-8226 = test: as above; conditions: Homo sapiens
LOX-IMVI = test: NCI growth inhibition and cytotoxicity screen, Melanoma panel; conditions: Homo sapiens
MDA-MB-435 = test: as above; conditions: Homo sapiens
SK-MEL-2 = test: as above; conditions: Homo sapiens
UACC-257 = test: as above; conditions: Homo sapiens
SF-539 = test: NCI growth inhibition and cytotoxicity screen, CNS Cancer panel; conditions: Homo sapiens
SNB-19 = test: as above; conditions: Homo sapiens
SNB-75 = test: as above; conditions: Homo sapiens
U251 = test: as above; conditions: Homo sapiens
A549/ATCC = test: NCI growth inhibition and cytotoxicity screen, Lung Cancer panel; conditions: Homo sapiens
HOP-92 = test: as above; conditions: Homo sapiens
NCI-H226 = test: as above; conditions: Homo sapiens
NCI-H23 = test: as above; conditions: Homo sapiens
HCC-2998 = test: NCI growth inhibition and cytotoxicity screen, Colon Cancer panel; conditions: Homo sapiens
A498 = test: NCI growth inhibition and cytotoxicity screen, Renal Cancer panel; conditions: Homo sapiens
RXF 393 = test: as above; conditions: Homo sapiens
SN12C = test: as above; conditions: Homo sapiens
UO-31 = test: as above; conditions: Homo sapiens
MDA-MB-231/ATCC = test: NCI growth inhibition and cytotoxicity screen, Breast Cancer panel; conditions: Homo sapiens
BT-549 = test: as above; conditions: Homo sapiens
T-47D = test: as above; conditions: Homo sapiens, T47D
IGROV1 = test: NCI growth inhibition and cytotoxicity screen, Ovarian Cancer panel; conditions: Homo sapiens
OVCAR-5 = test: as above; conditions: Homo sapiens
SK-OV-3 = test: as above; conditions: Homo sapiens
DU-145 = test: NCI growth inhibition and cytotoxicity screen, Prostate Cancer panel; conditions: Homo sapiens
[1] = read-out: LC50 (the source's name)

**Q.** How did the GI50 (NCI-H522) turn out when COc1cc(/C=C/c2cc3ccccc3o2)cc(OC)c1OC [Formula (I)(c)] was run?
**A.** 0.43 nM

**Q.** What about the CC50 (NCI-H522; [1]) of the same compound?
**A.** > 100000 nM

**Q.** What about the GI50 (SF-295) of the same compound?
**A.** 0.35 nM

**Q.** What about the CC50 (SF-295; [1]) of the same compound?
**A.** > 100000 nM

**Q.** And the GI50 (HL-60(TB); HL-60)?
**A.** 0.35 nM

**Q.** And the CC50 (HL-60(TB); HL-60, read-out: LC50)?
**A.** > 100000 nM

**Q.** And the GI50 (OVCAR-3; OVCAR-3)?
**A.** 0.42 nM

**Q.** And the CC50 (OVCAR-3; OVCAR-3, read-out: LC50)?
**A.** 48100 nM

**Q.** And the GI50 (CCRF-CEM)?
**A.** 0.42 nM

**Q.** What about the CC50 (CCRF-CEM; read-out: LC50) of the same compound?
**A.** > 100000 nM

**Q.** And the CC50 (K-562)?
**A.** > 100000 nM

**Q.** What about the GI50 (RPMI-8226; RPMI-8226) of the same compound?
**A.** 0.7 nM

**Q.** What about the CC50 (RPMI-8226; RPMI-8226, read-out: LC50) of the same compound?
**A.** > 100000 nM

**Q.** And the GI50 (LOX-IMVI)?
**A.** 0.89 nM

**Q.** And the CC50 (LOX-IMVI; read-out: LC50)?
**A.** 60400 nM

**Q.** And the GI50 (MDA-MB-435; MDA-MB-435)?
**A.** 0.078 nM

**Q.** And the CC50 (MDA-MB-435; MDA-MB-435, read-out: LC50)?
**A.** > 100000 nM

**Q.** What about the GI50 (SK-MEL-2; SK-MEL-2) of the same compound?
**A.** 0.76 nM

**Q.** And the CC50 (SK-MEL-2; SK-MEL-2, read-out: LC50)?
**A.** > 100000 nM

**Q.** And the GI50 (UACC-257; UACC-257)?
**A.** 16.4 nM

**Q.** What about the CC50 (UACC-257; UACC-257, read-out: LC50) of the same compound?
**A.** > 100000 nM

**Q.** And the GI50 (SF-539; SF-539)?
**A.** 0.27 nM

**Q.** And the CC50 (SF-539; SF-539, read-out: LC50)?
**A.** > 100000 nM

**Q.** What about the GI50 (SNB-19; SNB-19) of the same compound?
**A.** 0.58 nM

**Q.** What about the CC50 (SNB-19; SNB-19, read-out: LC50) of the same compound?
**A.** > 100000 nM

**Q.** And the GI50 (SNB-75; SNB-75)?
**A.** 0.47 nM

**Q.** What about the CC50 (SNB-75; SNB-75, read-out: LC50) of the same compound?
**A.** > 100000 nM

**Q.** And the GI50 (U251; U-251)?
**A.** 0.66 nM

**Q.** And the CC50 (U251; U-251, read-out: LC50)?
**A.** 81200 nM

**Q.** And the GI50 (A549/ATCC; A549)?
**A.** 0.61 nM

**Q.** What about the CC50 (A549/ATCC; A549, read-out: LC50) of the same compound?
**A.** > 100000 nM

**Q.** What about the GI50 (HOP-92; HOP-92) of the same compound?
**A.** 0.17 nM

**Q.** And the CC50 (HOP-92; HOP-92, read-out: LC50)?
**A.** > 100000 nM

**Q.** What about the GI50 (NCI-H226; NCI-H226) of the same compound?
**A.** 1.1 nM

**Q.** What about the CC50 (NCI-H226; NCI-H226, read-out: LC50) of the same compound?
**A.** > 100000 nM

**Q.** And the GI50 (NCI-H23; NCI-H23)?
**A.** 3.09 nM

**Q.** And the CC50 (NCI-H23; NCI-H23, read-out: LC50)?
**A.** > 100000 nM

**Q.** What about the GI50 (HCC-2998; HCC 2998) of the same compound?
**A.** 3.34 nM

**Q.** And the CC50 (HCC-2998; HCC 2998, read-out: LC50)?
**A.** > 100000 nM

**Q.** What about the GI50 (A498; A498) of the same compound?
**A.** 0.4 nM

**Q.** What about the CC50 (A498; A498, read-out: LC50) of the same compound?
**A.** 48400 nM

**Q.** What about the GI50 (RXF 393; RXF 393) of the same compound?
**A.** 0.32 nM

**Q.** And the CC50 (RXF 393; RXF 393, read-out: LC50)?
**A.** > 100000 nM

**Q.** What about the GI50 (SN12C) of the same compound?
**A.** 4.09 nM

**Q.** And the CC50 (SN12C; read-out: LC50)?
**A.** > 100000 nM

**Q.** And the GI50 (UO-31; UO-31)?
**A.** 1.15 nM

**Q.** And the CC50 (UO-31; UO-31, read-out: LC50)?
**A.** > 100000 nM

**Q.** And the GI50 (MDA-MB-231/ATCC; MDA-MB-231)?
**A.** 1.17 nM

**Q.** And the CC50 (MDA-MB-231/ATCC; MDA-MB-231, read-out: LC50)?
**A.** > 100000 nM

**Q.** What about the GI50 (BT-549; BT-549) of the same compound?
**A.** 1.09 nM

**Q.** What about the CC50 (BT-549; BT-549, read-out: LC50) of the same compound?
**A.** 79500 nM

**Q.** And the GI50 (T-47D)?
**A.** 0.69 nM

**Q.** What about the CC50 (T-47D; read-out: LC50) of the same compound?
**A.** > 100000 nM

**Q.** What about the GI50 (IGROV1; IGROV-1) of the same compound?
**A.** 0.8 nM

**Q.** And the CC50 (IGROV1; IGROV-1, read-out: LC50)?
**A.** > 100000 nM

**Q.** And the GI50 (OVCAR-5; OVCAR-5)?
**A.** 2.94 nM

**Q.** And the CC50 (OVCAR-5; OVCAR-5, read-out: LC50)?
**A.** > 100000 nM

**Q.** What about the GI50 (SK-OV-3; SK-OV-3) of the same compound?
**A.** 0.65 nM

**Q.** And the CC50 (SK-OV-3; SK-OV-3, read-out: LC50)?
**A.** > 100000 nM

**Q.** What about the GI50 (DU-145; DU-145) of the same compound?
**A.** 1.86 nM

**Q.** And the CC50 (DU-145; DU-145, read-out: LC50)?
**A.** > 100000 nM
